Reference: patent publication US20240002870A1, “RAPID TRANSFORMATION OF MONOCOT LEAF EXPLANTS” (PIONEER HI-BRED INTERNATIONAL, INC., priority 2020, published 2024)
“And” between values parts separate entries of the source, which are not always exact repeats. Identical values can stand only once.

Assays:
[1] = test system: Pioneer inbred PHH5E leaf segments; test: Auxin (2,4-D) pre-treatment of seedlings prior to Agrobacterium infection (Table 29); assay type: cell-based, maize; settings: for T-DNA Delivery: PHP71539 plus PHP97334
[2] = test system: Japonica rice (Oryza sativa var Kitaake), teff (Eragrostis tef), pearl millet (Pennisetum glaucum) seedlings; test: Ancymidol pretreatment during seed germination and seedling growth of other cereals; assay type: cell-based; settings: 1 mg/l in 900 medium; all three cereal crops
Description: Both […] ancymidol pretreatments during seed germination and seedling growth were tested (using medium 900 plus 1 mg/l or 2 mg/l ancymidol) on three cereals Japonica rice (Oryza sativa var Kitaake), teff (Eragrostis tef), and pearl millet (Pennisetum glaucum). […] When seed from all three species were germinated and grown on 900 medium plus 2 mg/l ancymodiol, the seedlings only grew to a height of 1-2 cm after 14 days and although the leaf-whorl region was thicker (due to wider leaves), processing these small seedlings to produce leaf segments followed by transformation was more difficult.
In contrast, for all three cereal crops, seed germination and seedling growth on 900 plus 1 mg/l ancymidol produced an intermediate growth rate, with thicker stems and wider leaves than the control (with no ancymidol). […] Thus, compared to maize and sorghum in which 2 mg/l ancymidol pretreatment during seedling growth is optimal for leaf transformation, a lower concentration of 1 mg/l ancymidol produced optimal results in rice, tef, and pearl millet.

[3] = test system: inbred PHH5E seedling-derived leaf segments; test: Seedling pre-treatment with ancymidol before leaf transformation; assay type: cell-based, maize; settings: PHP97334
[4] = test system: maize plants with edited or wild-type ALS2 alleles; test: Chlorsulfuron resistance test of plants with edited and wild-type ALS2 alleles (spray, germination on medium); assay type: in vivo; settings: for plants fourteen days after germination on media: 100 ppm; for phenotype three weeks after treatment: spray 50, 100 (1x), 200, 400 mg/liter

Question: Which “No. SC Clean (single-copy T-DNA integration with no extraneous Agrobacterium sequences)” value (shortened to “No. SC Clean”) ([1]; 3 mg/l 2,4-D for 24 hours) does the source give for `O=C(O)COc1ccc(Cl)cc1Cl` [2,4-D, 2,4-dichlorophenoxyacetic acid] here?
Answer: Its value is 18.

Question: And the “No. SC Clean” value ([1]; 10 mg/l 2,4-D for 24 hours)?
Answer: Its value is 40.

Question: And the “T-DNA Delivery” value ([1]; 10 mg/l 2,4-D for 24 hours before infection)?
Answer: Its value is 4 (90-100%).

Question: What about the “effect on leaf transformation (Txn %, single-copy T-DNA integrations) compared to the control treatment” value ([1]; 10 mg/l, 24 hours) of the same molecule?
Answer: The value was “improved leaf transformation”.

Question: And the “No. SC Clean” value ([1]; 30 mg/l 2,4-D for 24 hours)?
Answer: The value was 19.

Question: What about the “T-DNA Delivery” value ([1]; 30 mg/l 2,4-D for 24 hours before infection) of the same molecule?
Answer: Its value is 4 (90-100%).

Question: With `COc1ccc(C(O)(c2cncnc2)C2CC2)cc1` (centres unmarked) [Ancymidol, ancymidol] as the molecule, how does the “transgenic T0 plantlets compared to the other two treatments” value [2] read?
Answer: Its value is “produced the highest number of transgenic TO plantlets”.

Question: And the Txn % ([3]; 2 mg/l)?
Answer: Its Txn % is 236% and 358% and 303%.

Question: What about the Txn % ([3]; 2 mg/l, listed as ancymidol) of the same molecule?
Answer: The Txn % was 302%.

Question: What about the Txn % ([3]; 2 mg/l, total over three experiments) of the same molecule?
Answer: Its Txn % is 302%.

Question: What about the Txn % ([3]; 4 mg/l) of the same molecule?
Answer: Its Txn % is 234% and 252% and 253%.

Question: What about the Txn % ([3]; 4 mg/l, listed as ancymidol) of the same molecule?
Answer: Its Txn % is 246%.

Question: And the Txn % ([3]; 4 mg/l, total over three experiments)?
Answer: The Txn % was 246%.

Question: How did the “plants fourteen days after germination on media” value ([4]; plants with edited alleles) turn out when `COc1nc(C)nc(NC(=O)NS(=O)(=O)c2ccccc2Cl)n1` [chlorsulfuron] was run?
Answer: The value was “normal height and a well-developed root system”.

Question: And the “plants fourteen days after germination on media” value ([4]; plants with wild-type alleles)?
Answer: Its value is “short and do not develop roots”.

Question: And the “phenotype three weeks after treatment” value ([4]; T1 plants with only wild-type alleles)?
Answer: Its value is “strong signs of senescence”.

Question: What about the “phenotype three weeks after treatment” value ([4]; four-week old T1 plants with an edited ALS2 allele) of the same molecule?
Answer: The value was “normal phenotype”.
